Molecules are shown by their SMILES.

The experiment deals with T1, NEK7 (Homo sapiens, UniProt Q8TDX7).
T1 construct: purchased Thermo Fisher Scientific (Life Technologies) SelectScreen
Kind of experiment: SelectScreen Z'LYTE. The class given is biochemical. The essentials:
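NU5455 was profiled across the SelectScreen Broad panel of kinase activity and binding assays. Z'LYTE reactions such as CSF1R ran at apparent Km ATP, while the Adapta CAMK1 assay used ATP listed as 10. Values are given as percent.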

T1 sequence (Q8TDX7 whole entry): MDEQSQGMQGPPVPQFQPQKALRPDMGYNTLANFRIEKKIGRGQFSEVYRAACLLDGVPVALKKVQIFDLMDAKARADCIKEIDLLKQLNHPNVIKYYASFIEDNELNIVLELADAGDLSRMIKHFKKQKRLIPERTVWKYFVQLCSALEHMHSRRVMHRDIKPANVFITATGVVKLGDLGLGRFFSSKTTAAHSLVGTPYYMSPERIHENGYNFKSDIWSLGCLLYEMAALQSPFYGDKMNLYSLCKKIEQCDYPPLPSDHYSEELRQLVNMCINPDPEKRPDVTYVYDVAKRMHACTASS

Take `CN(C(=O)CN1CCOCC1)c1ccc2sc3c(-c4cccc5c(=O)cc(N6CC7CCC(C6)O7)oc45)cccc3c2c1` [NU5455]: the inhibition at 1 µM is -2.1%.

The record behind these values is article PMC6934184, “Selective DNA-PKcs inhibition extends the therapeutic index of localized radiotherapy and chemotherapy” (The Journal of Clinical Investigation, 2019).
